Experimental data as given in article PMC4582009 (Bioorganic & medicinal chemistry, 2015).

Columns and labels:
[1] = biological target: cloned human κ opioid receptor (Homo sapiens, UniProt P41145); test: biochemical; assay type: biochemical; conditions: for times less potent than JDTic as a κ opioid receptor antagonist: ratio of κ Ke values vs JDTic
[2] = biological target: cloned human δ opioid receptor (Homo sapiens, UniProt P41143); test: biochemical
[3] = test system: opioid receptors
[4] = biological target: cloned human μ opioid receptor (Homo sapiens, UniProt P35372); assay type: biochemical; conditions: ratio of μ Ke values vs 3b
Chain of cloned human μ opioid receptor (P35372 whole entry): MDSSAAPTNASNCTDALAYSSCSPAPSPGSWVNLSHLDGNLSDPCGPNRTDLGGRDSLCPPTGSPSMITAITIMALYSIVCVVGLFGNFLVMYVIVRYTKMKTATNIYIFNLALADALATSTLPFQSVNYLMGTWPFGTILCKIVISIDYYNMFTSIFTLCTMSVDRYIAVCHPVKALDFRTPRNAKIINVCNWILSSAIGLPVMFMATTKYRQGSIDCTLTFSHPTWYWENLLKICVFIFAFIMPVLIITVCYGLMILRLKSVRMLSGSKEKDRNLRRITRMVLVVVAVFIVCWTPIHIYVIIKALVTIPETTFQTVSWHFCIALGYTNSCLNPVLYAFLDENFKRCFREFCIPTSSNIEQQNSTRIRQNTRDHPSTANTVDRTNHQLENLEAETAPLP

Chain of cloned human δ opioid receptor (P41143 whole entry): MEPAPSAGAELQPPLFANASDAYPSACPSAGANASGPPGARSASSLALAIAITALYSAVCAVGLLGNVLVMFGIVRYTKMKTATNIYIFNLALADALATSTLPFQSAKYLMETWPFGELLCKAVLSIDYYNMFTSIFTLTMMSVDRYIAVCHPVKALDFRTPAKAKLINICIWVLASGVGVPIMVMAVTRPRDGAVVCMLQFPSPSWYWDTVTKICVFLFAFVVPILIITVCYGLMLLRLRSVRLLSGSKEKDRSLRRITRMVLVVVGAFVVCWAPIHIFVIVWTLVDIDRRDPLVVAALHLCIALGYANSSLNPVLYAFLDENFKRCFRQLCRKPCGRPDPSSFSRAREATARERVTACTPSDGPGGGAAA
Chain of cloned human κ opioid receptor (P41145 whole entry): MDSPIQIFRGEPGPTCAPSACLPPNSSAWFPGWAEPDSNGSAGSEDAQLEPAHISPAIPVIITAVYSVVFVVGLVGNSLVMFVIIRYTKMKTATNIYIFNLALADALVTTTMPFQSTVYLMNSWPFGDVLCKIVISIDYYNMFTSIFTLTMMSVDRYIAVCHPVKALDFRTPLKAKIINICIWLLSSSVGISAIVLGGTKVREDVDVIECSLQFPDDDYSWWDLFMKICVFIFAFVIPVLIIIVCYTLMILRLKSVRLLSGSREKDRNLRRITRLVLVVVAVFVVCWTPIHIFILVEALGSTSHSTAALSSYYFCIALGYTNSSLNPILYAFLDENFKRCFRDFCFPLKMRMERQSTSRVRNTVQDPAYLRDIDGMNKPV

Compound | times less potent than JDTic as a κ opioid receptor antagonist [1] [fold] | Kb [2] [nM] | other results
CC(C)[C@@H](CN1CCC(C)(c2cccc(O)c2)CC1)NC(=O)[C@H]1Cc2ccc(O)cc2CN1 [Compound 4a, (3R)-7-Hydoxy-N-[(1S)-1-{[4-(3-hydroxyphenyl)-4-methylpiperidin-1-yl]methyl}-2-methylpropyl]-1,2,3,4-tetrahydroisoquinoline-3-carboxamide] | 35 | 927 ± 350 | –
CC(C)[C@@H](CN1CCC(C)(c2cccc(F)c2)CC1)NC(=O)[C@H]1Cc2ccc(O)cc2CN1 [Compound 4b, (3R)-N-[(1S)-1-{[4-(3-fluorophenyl)-4-methylpiperidin-1-yl]methyl}-2-methylpropyl]-7-hydroxy-1,2,3,4-tetrahydroisoquinoline-3-carboxamide] | 9 | – | functional profile in the [35S]GTPγS test [3]: pure opioid antagonist
CC[C@H](C)[C@@H](CN1CCC(C)(c2cccc(F)c2)CC1)NC(=O)[C@H]1Cc2ccc(O)cc2CN1 [Compound 4c, (3R)-N-[(1S,2S)-1-{[4-(3-Fluorophenyl)-4-methylpiperidin-1-yl]methyl}-2-methylbutyl]-7-hydroxy-1,2,3,4-tetrahydroisoquinoline-3-carboxamide] | – | 903 ± 200 | δ/κ [1]: 27,363; μ/κ [1]: 342
CC(C)[C@@H](CN1CCC(c2ccccc2)CC1)NC(=O)[C@H]1Cc2ccc(O)cc2CN1 [Compound 4e, (3R)-7-Hydroxy-N-{(1S)-2-methyl-1-[(4-phenylpiperidin-1-yl]methyl]propyl}-1,2,3,4-tetrahydroisoquinoline-3-carboxamide] | 2.6 | 281 ± 44 | Kb [1]: 0.051 ± 0.01 nM; times less potent than 3a as a κ antagonist ([1]; ratio of κ Ke values vs 3a): 2 fold
CC(C)[C@@H](CN1CCC(c2cccc(F)c2)CC1)NC(=O)[C@H]1Cc2ccc(O)cc2CN1 [Compound 4f, (3R)-N-[(1S)-1-{[4-(3-Fluorophenyl)piperidin-1-yl]methyl}-2-methylpropyl]-7-hydroxy-1,2,3,4-tetrahydroisoquinoline-3-carboxamide] | – | – | times more potent as a μ antagonist than 3b [4]: 4 fold
